# Reference: patent US20220133747A1, “ESTROGEN RECEPTOR INHIBITORS AND USES THEROF” (The Regents of the University of California, priority 2018, published 2022)
# Entries after “also recorded” stand apart in the source; their conditions may differ.
# Tests used:
# [1] = test system: ER-dependent transcription; assay: ERE-luciferase T47D reporter, ER-dependent transcriptional activity; type: cell-based, human; conditions: T47D ERE-luciferase, 10 nM with 2 nM 17β-estradiol
# Procedure: (§1) FIGS. 20A-20C show biologic activity of selected SERD candidates. […] ER-positive MCF-7 cells were treated in phenol-red free RPMI 1640 without FBS and containing vehicle control (CON) or 100 nM concentrations of either fulvestrant (FX) or antiestrogens 105, 109, 121, 140, 151, 160 or SERD128 in vitro. After 4 hours, cells were harvested and processed for PAGE and Western immunoblots using ERα antibody (1D5, Thermofisher Scientific). RPL13A was used as a loading control. […] Cells were dosed with either E2 alone or with SERDs combined with E2 in phenol redfree medium with 0.1% dextran-coated charcoal-treated FBS in luminometer plates. Data are presented as relative light units (RLU) relative to that of E2 alone in three replicate assays (4 wells per replicate) f SEM. Treatment with E2 alone induced a 12-fold induction of ER-dependent luciferase activity quantified as RLU relative to vehicle control-treated samples.
# A stable ER-positive T47D ERE luciferase reporter cell line, in which the ERE and the reporter luciferase gene are consistently expressed in the cell line were used in this study (Signosis). […] Lysate was mixed 1:1 with luciferase substrate (Promega), and luminescence was measured using a MLX microtiter plate luminometer (Dynex) and quantified as relative light units (RLU) according to established procedures. Total protein was quantified using BioRad Protein Assay (BioRad).
# ER = biological target: T1, ER (Homo sapiens, UniProt P03372); assay: Specific [3H]estradiol-17β binding competition in MCF-7 breast cancer cells; conditions: MCF-7 cells, 10 nM
# T1 construct: endogenous in cells; host or cells: MCF-7 human breast cancer cells in suspension (intact cells)
# T1 sequence (P03372 1-595): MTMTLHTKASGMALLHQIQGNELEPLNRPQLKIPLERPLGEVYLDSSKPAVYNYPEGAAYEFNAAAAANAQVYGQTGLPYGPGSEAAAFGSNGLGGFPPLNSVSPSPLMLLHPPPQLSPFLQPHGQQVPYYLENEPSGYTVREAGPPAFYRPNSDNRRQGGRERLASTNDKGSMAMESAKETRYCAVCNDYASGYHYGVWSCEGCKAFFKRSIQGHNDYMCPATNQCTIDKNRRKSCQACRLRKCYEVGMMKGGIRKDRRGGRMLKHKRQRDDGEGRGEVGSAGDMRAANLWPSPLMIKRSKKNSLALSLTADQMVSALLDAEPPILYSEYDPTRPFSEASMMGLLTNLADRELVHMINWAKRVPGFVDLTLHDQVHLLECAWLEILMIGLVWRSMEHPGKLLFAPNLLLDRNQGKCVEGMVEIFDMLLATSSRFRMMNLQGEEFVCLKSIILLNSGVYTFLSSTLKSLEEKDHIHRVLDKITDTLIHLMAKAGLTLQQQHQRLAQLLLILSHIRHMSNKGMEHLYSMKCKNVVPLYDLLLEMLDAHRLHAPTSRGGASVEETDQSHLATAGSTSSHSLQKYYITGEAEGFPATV
# Procedure: as §1
# Specific estradiol-17β (E2) binding and competition for binding by antiestrogen SERD128 or fulvestrant was assessed in human MCF-7 breast cancer cells using methods as described before. […] Competitive ligand binding to ER-positive MCF-7 cells is detected by the ability of a test compound to displace labeled estradiol-17β from the cells in vitro.
# MCF-7 cells = assay: Cell proliferation assay, MCF-7 (MCF-7/PAR); type: cell-based, human; conditions: 10 nM with 2 nM estradiol-17β, 48 hr
# [2] = test system: MCF-7 human breast tumor xenografts; assay: MCF-7 human breast tumor xenografts in nude mice; type: in vivo; conditions: 15 and 75 mg/kg once a day by oral gavage for 28 days
# [3] = Screen of SERD candidates in antitumor assays, comparison with fulvestrant; conditions: a number of antitumor assays
# Excerpt: We designed, synthesized and screened more than 65 new SERD candidates, all of which have the general structure shown in 1′, namely 11β-aryloxy estradiols, with a basic amine positioned at the 4-position of the aryl ring (FIG. 16). The basic amine is connected to the aryl unit either directly or via a spacer that varies from 3-6 atoms. […] We note that this new class of steroid-like SERDs lack the prototypical side chain (as in fulvestrant) widely used to design other drugs with ERα antagonism, but these SERD candidates generate a full antagonist profile and induce significant ERα down-regulation, likely similar to significant ‘indirect’ receptor antagonism as reported in previous independent studies of 11β-substitutions in ERα [51, 52] and other structural changes as in an independent report.
smiles,measurement,setting,value
"C[C@]12C[C@H](Oc3ccc(N)c(C(F)(F)F)c3)[C@@H]3c4ccc(O)cc4CC[C@H]3[C@@H]1CC[C@@H]2O [SERD128, (8S,9S,11S,13S,14S,17S)-11-(4-Amino-3-(trifluoromethyl)phenoxy)-13-methyl-7,8,9,11,12,13,14,15,16,17-decahydro-6H-cyclopenta[a]phenanthrene-3,17-diol]",ER-dependent luciferase activity (RLU relative to E2 alone),[1],comparable to that of the pure antiestrogen fulvestrant
same,competition for specific [3H]estradiol-17β (E2) binding,ER,comparable to that of the pure antiestrogen fulvestrant
same,cell proliferation (% of estradiol-treated controls),MCF-7 cells,significantly blocked proliferation; also recorded: significantly inhibited; also recorded: antiproliferative action
same,tumor growth (tumor volume),[2],inhibits growth of human breast tumor xenografts in vivo; also recorded: significantly inhibited tumor growth in MCF-7 xenograft models in a dose-dependent manner; also recorded: inhibit the growth of human MCF-7 breast tumor xenografts in vivo in a dose-dependent manner; also recorded: potent biologic action in blocking the progression of breast tumors in vivo via an oral route of administration
same,activity relative to fulvestrant,[3],more potent than fulvestrant
